Experiment [1] relates to HepG2 (human hepatocellular carcinoma) cells. Nature of the experiment: Internalization evaluation by confocal laser scanning microscopy with LysoTracker. Type of experiment: cell-based. Particulars: Dox ca. 10 μg/mL. As for the experimental part: Internalization Evaluation. Accumulated Dox in HepG2 cells was localized using a Carl Zeiss LSM5 PASCAL confocal laser scanning microscope (CLSM). The […] cells were seeded on coverslides for 24 h and then treated with free Dox or Dox-loaded mixed micelles. Dox-loaded mixed micelles were washed with PBS twice to remove untrapped Dox before use. The concentration of Dox was ca. 10 μg/mL. After an interval, the cells were washed twice with PBS; then, the LysoTracker was added in a culture medium without FBS. After 30 min of incubation, the cells were washed with PBS and mounted on a slide with 4 wt % paraformaldehyde for CLSM observation. Fluorescence observation was carried out with a confocal microscope at 488 nm for excitation and an LP (long-pass) filter of 590 nm for Dox detection. […]
Confocal laser scanning microscopy (CLSM) was used to observe the intracellular drug release of mixed micelles. Confocal images were taken to observe the time-dependent fluorescence intensity of LysoTracker and Dox after mixed micelles were incubated with HepG2 (human hepatocellular carcinoma) cells. The red fluorescence from Dox and the green fluorescence from LysoTracker were detected in the intracellular compartment. […] Fluorescence from LysoTracker occurred in both the nucleus and cytoplasm because these are acidified by doxorubicin hydrochloride. […]

The subject of the next experiment is HeLa cells. Briefly: Cytotoxicity evaluation, MTT assay. The following applies: 48 h. Format: cell-based.

Procedure for HeLa cells: The cytotoxicity of each sample was determined by measuring the inhibition of cell growth using a tetrazolium dye (MTT) assay. […] HeLa cells (5×10^3 cell/mL) harvested in a logarithmic growth phase were seeded on 96 wells in Dulbecco's modified Eagle's medium (DMEM) with 10% fetal bovine serum (FBS) in a humidified atmosphere of 5% CO2 at 37° C. After the HeLa cells had been incubated in a logarithmic growth phase, samples with various concentrations of Dox were added for 48 h of co-culturing. At the end of the experiment, the MTT assay was conducted and the percentage of cell viability was calculated. Additionally, material cytotoxicities were measured using HeLa cells (5×10^3 cell/mL). The experimental process was identical to that described above.
HeLa cells (5×10^3 cell/ml) were used to study the cytotoxicity of free Dox and Dox-loaded mixed micelle by measuring the inhibition of cell growth using a tetrazolium dye (MTT) assay.
The Dox-loaded multifunctional micelles and free Dox were tested for in vitro cytotoxicity using a tetrazolium dye (MTT) method. The MTT-based cytotoxic activities of the Dox-loaded multifunctional micelles and free DOX were compared after 24 h and 72 h incubation with HeLa cells.

For the molecule `COc1cccc2c1C(=O)c1c(O)c3c(c(O)c1C2=O)C[C@@](O)(C(=O)CO)C[C@@H]3O[C@H]1C[C@H](N)[C@H](O)[C@H](C)O1` [free Dox, doxorubicin], the “localization of Dox fluorescence” value in experiment [1] (1 h incubation) and in experiment [1] (8 h incubation) was “concentrated in the nucleus” throughout. For the same molecule, in the experiment on HeLa cells, the “activity compared with Dox-loaded mixed micelles and Dox-loaded Graft I micelles” value is reported as “more potent activity”.
